What all share (format): in vivo
For assay [1], the system named is Galium (catchweed bedstraw, Galium aparine). The assay can be described thus: Test A postemergence. The note with it: Galium, post-emergence, 240 h, postemergence; for pest or weed control at 125 g/ha: 125 g ai/ha; for pest or weed control at 500 g/ha: 500 g ai/ha, 0 to 100 scale, 0 is no effect, 100 is complete control, read-out: Galium plant response rating. The method, boiled down: (§1)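 In a loam soil and sand blend, planted seeds got a preemergence directed soil spray, and young plants at the one- to two-leaf stage, 2–10 cm high, got a postemergence application; ~10 d greenhouse hold; injury rated visually, 0 = none, 100 = complete control.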

The next assay concerns Kochia (Kochia scoparia). The assay is described as follows: Test A postemergence. The conditions noted are these: Bassia scoparia, post-emergence, 240 h, postemergence; for pest or weed control at 125 g/ha: 125 g ai/ha; for pest or weed control at 500 g/ha: 500 g ai/ha, 0 to 100 scale, 0 is no effect, 100 is complete control, read-out: Kochia plant response rating. The essentials:
as §1

For assay [2], the system named is barnyardgrass (Echinochloa crus-galli). The assay is described as follows: Test A postemergence. The conditions noted are these: Echinochloa crus-galli, post-emergence, 240 h, postemergence; for pest or weed control at 125 g/ha: 125 g ai/ha; for pest or weed control at 500 g/ha: 500 g ai/ha, 0 to 100 scale, 0 is no effect, 100 is complete control, read-out: Barnyardgrass plant response rating. The essentials: as §1

For assay [3], the system named is blackgrass (Alopecurus myosuroides). The assay can be described thus: Test A postemergence. The note with it: Alopecurus myosuroides, post-emergence, 240 h, postemergence; for pest or weed control at 125 g/ha: 125 g ai/ha; for pest or weed control at 500 g/ha: 500 g ai/ha, 0 to 100 scale, 0 is no effect, 100 is complete control, read-out: Blackgrass plant response rating. The method, boiled down:
as §1

In the next assay the test system is corn (Zea mays). The assay can be described thus: Test A postemergence. The note with it: Zea mays, post-emergence, 240 h, postemergence; for plant injury at 125 g/ha: visual injury vs untreated controls after approx. 10 d, 0 = no effect, 100 = complete control, read-out: Corn plant response rating (0 to 100 scale); for plant injury at 500 g/ha: 500 g ai/ha, 0 to 100 scale, 0 is no effect, 100 is complete control, read-out: Corn plant response rating. The essentials: as §1

For assay [4], the system named is giant foxtail (Setaria faberii). The assay is described as follows: Test A postemergence. The note with it: Setaria faberi, post-emergence, 240 h, postemergence; for pest or weed control at 125 g/ha: 125 g ai/ha; for pest or weed control at 500 g/ha: 500 g ai/ha, 0 to 100 scale, 0 is no effect, 100 is complete control, read-out: Foxtail, Giant plant response rating. The method, boiled down:
as §1

Assay [5] has as its system pigweed (Amaranthus retroflexus). The assay can be described thus: Test A postemergence. The conditions noted are these: Amaranthus retroflexus, post-emergence, 240 h, postemergence; for pest or weed control at 125 g/ha: 125 g ai/ha; for pest or weed control at 500 g/ha: 500 g ai/ha, 0 to 100 scale, 0 is no effect, 100 is complete control, read-out: Pigweed plant response rating. The method, boiled down: as §1

In assay [6] the test system is ragweed (common ragweed, Ambrosia elatior). The assay can be described thus: Test A postemergence. The note with it: Ambrosia artemisiifolia, post-emergence, 240 h, postemergence; for pest or weed control at 125 g/ha: 125 g ai/ha; for pest or weed control at 500 g/ha: 500 g ai/ha, 0 to 100 scale, 0 is no effect, 100 is complete control, read-out: Ragweed plant response rating. The essentials: as §1

In assay [7] the test system is ryegrass, Italian (Italian ryegrass, Lolium multiflorum). The assay can be described thus: Test A postemergence. The note with it: Lolium multiflorum, post-emergence, 240 h, postemergence; for pest or weed control at 125 g/ha: 125 g ai/ha; for pest or weed control at 500 g/ha: 500 g ai/ha, 0 to 100 scale, 0 is no effect, 100 is complete control, read-out: Ryegrass, Italian plant response rating. The essentials: as §1

In assay [8] the test system is wheat (Triticum aestivum). The assay is described as follows: Test A postemergence. The note with it: Triticum aestivum, post-emergence, 240 h, 125 g ai/ha, postemergence. The method, boiled down: as §1
Assay [9] has as its system barnyardgrass (Echinochloa crus-galli). The assay can be described thus: Test B flooded paddy test. The note with it: Echinochloa crus-galli, 250 g ai/ha, Flood, read-out: Barnyardgrass plant response rating. The method, boiled down: (§2)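 Greenhouse paddy pots with 2-leaf stage plants received compound by direct addition to floodwater 3 cm deep, kept at that level. Scored visually at 13–15 d versus controls (0 no effect; 100 complete control).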

In assay [10] the test system is ducksalad (Heteranthera limosa). The assay is described as follows: Test B flooded paddy test. The conditions noted are these: Heteranthera limosa, 250 g ai/ha, Flood, read-out: Ducksalad plant response rating. The method, boiled down:
as §2

A further assay relates to rice (Oryra sativa). The assay is described as follows: Test B flooded paddy test. The note with it: Oryza sativa, 250 g ai/ha, Flood, read-out: Rice plant response rating. The essentials: as §2
The subject of assay [11] is sedge, umbrella (small-flower umbrella sedge, Cyperus difformis). The assay is described as follows: Test B flooded paddy test. The conditions noted are these: Cyperus difformis, 250 g ai/ha, Flood, read-out: Sedge, Umbrella plant response rating. The method, boiled down: as §2
[12] abbreviates: visual injury vs untreated controls after approx. 10 d, 0 = no effect, 100 = complete control, read-out: Galium plant response rating (0 to 100 scale).
Setting [13] is: visual injury vs untreated controls after approx. 10 d, 0 = no effect, 100 = complete control, read-out: Kochia plant response rating (0 to 100 scale).
The mark [14] stands for this setting: visual injury vs untreated controls after approx. 10 d, 0 = no effect, 100 = complete control, read-out: Barnyardgrass plant response rating (0 to 100 scale).
The mark [15] stands for this setting: visual injury vs untreated controls after approx. 10 d, 0 = no effect, 100 = complete control, read-out: Blackgrass plant response rating (0 to 100 scale).
[16] abbreviates: visual injury vs untreated controls after approx. 10 d, 0 = no effect, 100 = complete control, read-out: Foxtail, Giant plant response rating (0 to 100 scale).
The mark [17] stands for this setting: visual injury vs untreated controls after approx. 10 d, 0 = no effect, 100 = complete control, read-out: Pigweed plant response rating (0 to 100 scale).
Setting [18] is: visual injury vs untreated controls after approx. 10 d, 0 = no effect, 100 = complete control, read-out: Ragweed plant response rating (0 to 100 scale).
The mark [19] stands for this setting: visual injury vs untreated controls after approx. 10 d, 0 = no effect, 100 = complete control, read-out: Ryegrass, Italian plant response rating (0 to 100 scale).
The mark [20] stands for this setting: visual injury vs untreated controls after approx. 10 d, 0 = no effect, 100 = complete control, read-out: Wheat plant response rating (0 to 100 scale).
[21] abbreviates: 0 to 100 scale where 0 is no effect and 100 is complete control.
The mark [22] stands for this setting: scale of 0 to 100 where 0 is no effect and 100 is complete control.

Where two headings read alike, the source gives them in different places.

Three compounds from US12077503B2, “Substituted cyclic amides and their use as herbicides” (FMC CORPORATION, priority 2015, dated 2024) can be followed below.

In the case of `O=C1NC[C@H](c2cccc(C(F)(F)F)c2)C1C(=O)Nc1c(F)cccc1CO` (stereo partly drawn) [Compound 1240], the pest or weed control at 125 g/ha (in assay [1] (setting [12]); in the assay with Kochia (Kochia scoparia) (setting [13]); in assay [2] (setting [14]); in assay [3] (setting [15]); in [4] (setting [16]); in assay [5] (setting [17])) was 0% throughout. Besides, the pest or weed control at 125 g/ha in assay [6] (setting [18]) and in [7] (setting [19]) was 0% each time. In addition, the pest or weed control at 500 g/ha (in [1]; in the assay with Kochia (Kochia scoparia); in [2]; in assay [3]; in assay [4]; in [5]) was 0% in each case. For the same compound, the pest or weed control at 500 g/ha in assay [6] and in [7] was 0% each time. Moreover, the plant injury at 125 g/ha (in the assay on corn (Zea mays) (125 g ai/ha); in assay [8] (setting [20])) was 0% in each case. Moreover, the plant injury at 500 g/ha with corn (Zea mays) was 0%. Besides, the pest or weed control at 250 g/ha (in assay [9] (setting [21]); in assay [10] (setting [21]); with rice (Oryra sativa) (setting [21]); in [11] (setting [21])) was 0% throughout.
For `Cc1ccccc1NC(=O)[C@H]1C(=O)N(C)C[C@@H]1c1ccc(C(F)(F)F)cc1` [Compound 1239], the pest or weed control at 125 g/ha in assay [1] (setting [12]) amounted to 60%; with Kochia (Kochia scoparia) (setting [13]), 40%; in [2] (setting [14]) it was 90%; in assay [3] (setting [15]) it was 70%; in assay [4] (setting [16]), 90%; in assay [5] (setting [17]), 50%. The pest or weed control at 125 g/ha in [6] (setting [18]) and in [7] (setting [19]) was 20% throughout. Moreover, the pest or weed control at 500 g/ha turned out to be 60% in assay [1]; 70% in the assay with Kochia (Kochia scoparia); 80% in [2]; 80% in assay [3]; 90% in assay [4]; 50% in assay [5]. In addition, the pest or weed control at 500 g/ha in assay [6] stood at 60%; in assay [7], 50%. Besides, the plant injury at 125 g/ha in the assay with corn (Zea mays) (125 g ai/ha) was determined as 50%; in [8] (setting [20]), 30%. In addition, the plant injury at 500 g/ha in the assay on corn (Zea mays) came to 70%. The pest or weed control at 250 g/ha in [9] (setting [21]) was determined as 40%; in assay [10] (setting [21]) it was 100%; in the assay with rice (Oryra sativa) (setting [21]), 20%; in assay [11] (setting [21]), 0%.
Turning to `CN1C[C@H](c2cccc(C(F)(F)F)c2)[C@@H](C(=O)Nc2ccccc2C2CC2)C1=O` [Compound 749], the pest or weed control at 125 g/ha in [1] (visual injury after approximately 10 d, 0 to 100 scale (0 no effect, 100 complete control), read-out: Plant response rating, Galium) came out at 0%; with Kochia (Kochia scoparia) (visual injury after approximately 10 d, 0 to 100 scale (0 no effect, 100 complete control), read-out: Plant response rating, Kochia) it was 0%; in [2] (visual injury after approximately 10 d, 0 to 100 scale (0 no effect, 100 complete control), read-out: Plant response rating, Barnyardgrass), 0%; in [3] (visual injury after approximately 10 d, 0 to 100 scale (0 no effect, 100 complete control), read-out: Plant response rating, Blackgrass), 0%; in assay [4] (visual injury after approximately 10 d, 0 to 100 scale (0 no effect, 100 complete control), read-out: Plant response rating, Foxtail, Giant) it was 0%; in assay [5] (visual injury after approximately 10 d, 0 to 100 scale (0 no effect, 100 complete control), read-out: Plant response rating, Pigweed), 0%. The pest or weed control at 125 g/ha was 0% in [6] (visual injury after approximately 10 d, 0 to 100 scale (0 no effect, 100 complete control), read-out: Plant response rating, Ragweed) and 0% in assay [7] (visual injury after approximately 10 d, 0 to 100 scale (0 no effect, 100 complete control), read-out: Plant response rating, Ryegrass, Italian). Further, the Corn plant response rating (crop injury, 0 = no effect, 100 = complete kill) at 125 g/ha in the assay on corn (Zea mays) (125 g ai/ha, visual injury after approximately 10 d, 0 to 100 scale (0 no effect, 100 complete control)) came to 0%. Also, the plant injury at 125 g/ha in assay [8] (visual injury after approximately 10 d, 0 to 100 scale (0 no effect, 100 complete control), read-out: Plant response rating, Wheat) was found to be 0%. Moreover, the pest or weed control at 250 g/ha came to 0% in assay [9] (setting [22]), 20% in [10] (setting [22]), 0% with rice (Oryra sativa) (setting [22]) and 0% in assay [11] (setting [22]).
